Reference: article PMC11596366, “Silybin Derivatives Produced by γ-Irradiation and Their Tyrosinase Inhibitory Activities” (Molecules, 2024)

Assays:
Mushroom tyrosinase = Mushroom tyrosinase (Agaricus bisporus, UniProt C7FF04); assay: Mushroom tyrosinase inhibitory activity (L-tyrosine substrate, OD 475 nm); type: biochemical
Method: Mushroom tyrosinase (Sigma-Aldrich Co., St. Louis, MO, USA) was used for in vitro assays with slight modifications from a previously described method. […] After 5 min incubation at room temperature, 0.1 mL L-tyrosine (2 mM) was added and incubated for additional 20 min.

tyrosinase = tested on: tyrosinase; set-up: method as in PMID 30871862; conditions: against both monophenolase and diphenolase; cited from earlier work

Mushroom tyrosinase, sequence (C7FF04 2-392): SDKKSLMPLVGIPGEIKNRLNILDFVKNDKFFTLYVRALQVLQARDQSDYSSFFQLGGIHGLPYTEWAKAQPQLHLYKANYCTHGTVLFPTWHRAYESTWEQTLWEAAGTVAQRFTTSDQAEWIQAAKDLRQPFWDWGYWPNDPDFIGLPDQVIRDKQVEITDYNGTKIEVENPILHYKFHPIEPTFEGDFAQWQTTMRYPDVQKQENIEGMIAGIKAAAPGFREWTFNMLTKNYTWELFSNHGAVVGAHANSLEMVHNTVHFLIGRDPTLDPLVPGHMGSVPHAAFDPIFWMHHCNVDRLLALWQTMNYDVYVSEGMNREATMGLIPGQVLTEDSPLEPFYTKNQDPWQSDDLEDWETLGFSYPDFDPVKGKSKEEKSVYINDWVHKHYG
Mushroom tyrosinase, sequence (G1K3P4 entry or part of it, further chain): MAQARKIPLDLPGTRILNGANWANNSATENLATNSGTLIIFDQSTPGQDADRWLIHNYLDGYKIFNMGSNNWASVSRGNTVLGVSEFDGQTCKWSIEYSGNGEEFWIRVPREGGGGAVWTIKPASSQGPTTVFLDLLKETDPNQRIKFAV

**Q.** With OC[C@H]1O[C@@H](Oc2ccc(O)cc2)[C@H](O)[C@@H](O)[C@@H]1O [Arbutin, reference compound] as the molecule, how does the inhibition at 2300 µg/mL (Mushroom tyrosinase; concentration 2300 μg/mL, positive control) read?
**A.** 50 ± 2.1%

**Q.** Which results are given for COc1cc(C2Oc3cc([C@H]4Oc5cc(O)cc(O)c5C(=O)[C@@H]4O)ccc3OC2CO)ccc1O (stereo partly drawn) [Compound 0]?
**A.** IC50 (Mushroom tyrosinase; non-irradiated and irradiated silybin samples, arbutin positive control, L-tyrosine 2 mM, pH 6.5): >200 µg/mL; Inhibition of Tyrosinase (%) (Mushroom tyrosinase; sample concentration 50 μg/mL, L-tyrosine 2 mM, pH 6.5): 5.2 ± 0.2%; Inhibition of Tyrosinase (%) (Mushroom tyrosinase; sample concentration 100 μg/mL, L-tyrosine 2 mM, pH 6.5): 11.4 ± 0.5%; Inhibition of Tyrosinase (%) (Mushroom tyrosinase; sample concentration 200 μg/mL, L-tyrosine 2 mM, pH 6.5): 26.5 ± 0.8%

**Q.** Which “type of tyrosinase inhibition” value (tyrosinase) does the source give for COc1cc(C2Oc3cc([C@H]4Oc5cc(O)cc(O)c5C(=O)[C@@H]4O)ccc3OC2CO)ccc1O (stereo partly drawn) [silybin (1), silybin] here?
**A.** mixed type I (KI < KIS) inhibition
